Measured values as given in patent publication US10865196B2, “Compounds for treatment of cancer” (University of Tennessee Research Foundation, priority 2008, dated 2020).
Read-outs that look alike come from different tables or passages of the source.

Assays:
NCI/ADR-RES = assay: SRB antiproliferation assay, P-gp over-expressing NCI/ADR-RES
OVCAR-8 = assay: SRB antiproliferation assay, OVCAR-8 ovarian cancer; conditions: Homo sapiens, OVCAR-8, read-out: IC50 OVCAR-8
[1] = system: prostate cancer cells (LNCaP, PC-3, DU-145, PPC-1); assay: SRB assay, prostate cancer cells; assay type: cell-based, human; conditions: for IC50: Homo sapiens, range over prostate cancer cell lines, read-out: IC50 values against prostate cancer cells
melanoma cells = assay: SRB assay, melanoma cells; assay type: cell-based; conditions: range over melanoma cell lines; read-out: IC50 values against melanoma cells
Protocol: (§1) For melanoma assays, one human melanoma cell line (A375) and one mouse melanoma cell line (B16-F1) were used. […] Fibroblast cells were used as a control to determine the selectivity of these compounds against melanoma. Human dermal fibroblast cells were purchased from Cascade Biologics, Inc., Portland, Oreg., USA. […] Cells were exposed to a wide range of concentrations for 48 h in round-bottomed 96-well plates. […] After cells were air-dried overnight and stained with SRB solution, total proteins were measured at 560 nm with a plate reader.

LNCaP = assay: SRB antiproliferation assay, LNCaP prostate cancer; conditions: read-out: IC50 LNCaP, SRB
DU 145 = assay: SRB antiproliferation assay, DU 145 prostate cancer; conditions: read-out: IC50 DU 145, SRB
PC-3 = assay: SRB antiproliferation assay, PC-3 prostate cancer; conditions: read-out: IC50 PC-3, SRB
A375 = assay: SRB antiproliferation assay, A375 melanoma; assay type: cell-based, human; conditions: read-out: IC50 A375 (converted)
Source text: (§2) For melanoma assays, one human melanoma cell line (A375) and one mouse melanoma cell line (B16-F1) were used. […] Fibroblast cells were used as a control to determine the selectivity of these compounds against melanoma. Human dermal fibroblast cells were purchased from Cascade Biologics, Inc., Portland, Oreg., USA.

B16-F1 = assay: SRB antiproliferation assay, B16-F1 melanoma; assay type: cell-based, mouse; conditions: Mus musculus, read-out: IC50 B16-F1 (converted)
Source text: as §2

PPC-1 = assay: SRB antiproliferation assay, PPC-1 prostate cancer; conditions: read-out: IC50 PPC-1, SRB
[2] = system: melanoma (A375, B16-F1) and prostate cancer cells (DU145, PC-3, LNCaP, PPC-1); assay: SRB assay, range over melanoma and prostate cancer cell lines; assay type: cell-based; conditions: for IC50: range over the examined cell lines, read-out: IC50 over melanoma and prostate cancer cell lines
Protocol: as §1

WM164 = assay: SRB antiproliferation assay, WM-164 melanoma; assay type: cell-based; conditions: Homo sapiens
[3] = system: Human dermal fibroblast cells; assay: SRB assay, fibroblast control cells; assay type: cell-based
Protocol: as §1

| IC50 (LNCaP) [µM] | IC50 (DU 145) [µM] | IC50 (PC-3) [µM] | IC50 (A375; Homo sapiens, A-375, SRB) [µM] | IC50 (B16-F1; B16-F1, SRB) [µM] | IC50 (PPC-1) [µM] | melting point [°C] | Compound | also measured |
| --- | --- | --- | --- | --- | --- | --- | --- | --- |
|  |  |  |  |  |  |  | COc1cc(C(=O)c2cccc(-c3ccccc3)n2)cc(OC)c1OC | IC50 (NCI/ADR-RES; Homo sapiens, NCI/ADR-RES, read-out: IC50 NCI/ADR-RES): 0.013 ± 0.0008 µM; IC50 (OVCAR-8): 0.033 ± 0.003 µM |
|  |  |  |  |  |  |  | COc1cc(C(=NC#N)c2csc(-c3ccccc3)n2)cc(OC)c1OC | Resistance factor (NCI/ADR-RES; NCI/ADR-RES vs OVCAR-8): 0.4 |
|  |  |  |  |  |  |  | COc1cc(C(=O)c2csc(-c3ccc(CN)cc3)n2)cc(OC)c1OC | IC50 (OVCAR-8): 0.026 ± 0.002 µM |
|  |  |  |  |  |  |  | COc1cc(C(=O)c2csc(Nc3ccccc3)n2)cc(OC)c1OC [5-a] | activity in prostate cancer cell lines, in words [1]: potent activity |
|  |  |  |  |  |  |  | COc1cc(C(=O)c2csc(Nc3ccc(F)cc3)n2)cc(OC)c1OC [5-c] | activity in prostate cancer cell lines, in words [1]: potent activity |
|  |  |  |  |  |  |  | COc1cc(C(=O)c2csc(Nc3ccc(Cl)cc3)n2)cc(OC)c1OC [5-d] | activity in prostate cancer cell lines, in words [1]: potent activity |
| 0.011 | 0.035 | 0.024 | 0.304 | 0.287 | 0.021 |  | COc1cc(C(=O)c2csc(-c3cccc(F)c3)n2)cc(OC)c1OC [8m, [2-(3-Fluorophenyl)-thiazol-4-yl](3,4,5-trimethoxyphenyl)-methanone] | IC50 (melanoma cells): 0.287 to 0.304 µM; IC50 [1]: 0.023 to 0.046 µM |
| 0.015 | 0.052 | 0.03 | 0.059 | 0.053 | 0.019 |  | COc1cc(C(=O)c2csc(-c3ccc(C#N)cc3)n2)cc(OC)c1OC [8q, 4-[4-(3,4,5-Trimethoxybenzoyl)-thiazol-2-yl]-benzonitrile] |  |
| 0.094 | 0.05 | 0.058 | 0.023 | 0.092 | 0.076 |  | COc1cc(C(=O)c2csc(-c3ccc(C(F)(F)F)cc3)n2)cc(OC)c1OC [8t, (2-(4-(Trifluoromethyl)-phenyl)-thiazol-4-yl)(3,4,5-trimethoxyphenyl)-methanone] |  |
| 0.044 | 0.021 | 0.018 | 0.013 | 0.032 | 0.021 |  | COc1cc(C(=O)c2csc(-c3ccc(Br)cc3)n2)cc(OC)c1OC [8u, [2-(4-Bromophenyl)-thiazol-4-yl]-(3,4,5-trimethoxyphenyl)-methanone] | IC50 [1]: 0.018 to 0.044 µM |
| 0.06 | 0.031 | 0.027 |  | 0.07 | 0.022 |  | CCc1ccc(-c2nc(C(=O)c3cc(OC)c(OC)c(OC)c3)cs2)cc1 [8v, [2-(4-Ethyl-phenyl)-thiazol-4-yl]-(3,4,5-trimethoxy-phenyl)-methanone] | IC50 [2]: 0.017 to 0.07 µM |
| > 20 | > 20 | > 20 | > 100 | > 100 | > 20 | 178 to 180 | COc1cc(C(=O)c2csc(-c3ccncc3)n2)cc(OC)c1OC [8x, [2-(Pyridin-4-yl)-thiazol-4-yl]-(3,4,5-trimethoxyphenyl)-methanone] |  |
| 2.37 | 2.81 | 2.66 | 4.1 | 2.3 | 1.19 | 190 to 191 | COc1cc(C(=O)c2csc(-c3ncccn3)n2)cc(OC)c1OC [8y, [2-(Pyrimidin-2-yl)-thiazol-4-yl]-(3,4,5-trimethoxyphenyl)-methanone] | IC50 [2]: 11.8 to 41 µM |
|  |  |  | 3.47 | 4.9 |  |  | Cc1ccc(-c2nc(C(=O)c3ccc(F)cc3)cs2)cc1 [11-11] | IC50 (WM164): 4.7 µM |
|  |  |  | > 10 | > 10 |  |  | O=C(c1ccc(OC(F)(F)F)cc1)c1csc(-c2ccccc2)n1 [13-13] | IC50 (WM164): > 10 µM |
| 0.234 | 0.592 | 0.148 | 0.481 | 0.539 | 0.209 |  | COc1cc(C(=O)c2c[nH]c(-c3cn(S(=O)(=O)c4ccccc4)c4ccccc34)n2)cc(OC)c1OC [17yab, (2-(1-(Phenylsulfonyl)-1H-indol-3-yl)-1H-imidazol-4-yl)(3,4,5-trimethoxyphenyl)methanone] | IC50 (WM164): 0.468 µM |
|  |  |  | > 10 | > 10 |  |  | COc1ccc(C(=O)n2ccnc2-c2ccc(F)cc2)cc1 [24-24] | IC50 (WM164): > 10 µM |
|  |  |  |  |  |  |  | CC(=O)Nc1ccc(C2N[C@H](C(=O)Nc3ccc4c(c3)Cc3ccccc3-4)CS2)cc1 (stereo partly drawn) [ATCAA-2, reference compound] | IC50 (LNCaP; 96 h): 3.5 ± 0.7 µM; IC50 (DU 145; 96 h): 1.9 ± 0.3 µM; IC50 (PC-3; 96 h): 2.1 ± 0.1 µM; IC50 (A375; SRB, 48 h): 2.1 ± 0.1 µM; IC50 (PPC-1; 96 h): 1.6 ± 0.1 µM; IC50 [2]: 1.6 to 3.9 µM |
| > 20 | > 20 | > 20 | > 100 | > 100 | > 20 | 106 to 108 | COc1cc(C(=O)c2cscn2)cc(OC)c1OC [compound 10, Thiazol-4-yl-(3,4,5-trimethoxy-phenyl)-methanone] | antiproliferative activity against melanoma and prostate cancer cell lines, in words ([2]; compared with 8f or parent compounds): total loss of activity |
|  |  |  |  |  |  | 150 to 153 | COc1cc(/C(=N/O)c2csc(-c3ccccc3)n2)cc(OC)c1OC [compound 33, (Z)-(2-Phenylthiazol-4-yl)(3,4,5-trimethoxyphenyl)methanone oxime] | IC50 [3]: 0.36 µM; IC50 (A375; Homo sapiens, A-375, 48 h, SRB, 48 h): 0.18 µM; IC50 (B16-F1; B16-F1, 48 h, SRB, 48 h): 0.32 µM |
|  |  |  |  |  |  | 176 to 177 | COc1cc(/C(=N\O)c2csc(-c3ccccc3)n2)cc(OC)c1OC [compound 34, (E)-(2-Phenylthiazol-4-yl)(3,4,5-trimethoxyphenyl)methanone oxime] | IC50 (LNCaP; 96 h): > 1 µM; IC50 [3]: 10.1 µM; IC50 (DU 145; 96 h): > 1 µM; IC50 (PC-3; 96 h): > 1 µM; IC50 (PPC-1; 96 h): > 1 µM |
|  |  |  |  |  |  | 117 to 119 | COc1cc(/C(=N/N)c2csc(-c3ccccc3)n2)cc(OC)c1OC [compound 35, (Z)-4-(Hydrazono(3,4,5-trimethoxyphenyl)methyl)-2-phenylthiazole] | IC50 [3]: 1.9 µM |
|  |  |  |  |  |  | 65 to 66 | COc1cc(/C(=N\N)c2csc(-c3ccccc3)n2)cc(OC)c1OC [compound 36, (E)-4-(Hydrazono(3,4,5-trimethoxyphenyl)methyl)-2-phenylthiazole] | IC50 [3]: 1 µM |

| Compound | IC50 (LNCaP) [µM] | IC50 (DU 145) [µM] | IC50 (PC-3) [µM] | IC50 (A375; Homo sapiens, A-375, SRB) [µM] | IC50 (B16-F1; B16-F1, SRB) [µM] | IC50 (PPC-1) [µM] | melting point [°C] | also measured |
| --- | --- | --- | --- | --- | --- | --- | --- | --- |
| COc1cc(C(=O)c2csc(-c3ccccc3F)n2)cc(OC)c1OC [8l, [2-(2-Fluorophenyl)-thiazol-4-yl]-(3,4,5-trimethoxyphenyl)-methanone] | 0.053 | 0.114 | 0.082 | 0.03 | 0.027 | 0.052 | 90 to 102 | IC50 (melanoma cells): 0.027 to 0.03 µM; IC50 [1]: 0.052 to 0.114 µM |
